# Results from publication PMC10800023 (Human Molecular Genetics, 2023).
# “And” between values parts separate entries of the source, which are not always exact repeats. Identical values can stand only once. Like-named read-outs stand apart in the source and are kept apart here.
# Tests used:
# [1] = test system: B10-mdx mice; assay: Tail-suspension test 24 h after force-swim test (Study 2); assay type: in vivo, mouse; conditions: daily dosing 4 weeks, vs vehicle B10-mdx
# Experimental: Corticosteroid-treated mice were subjected to the force-swim test (FST) followed by the tail-suspension test (TST) 24 h later. During the TST, normal mice will struggle and constantly move. However, mice show depression-like behavior by quickly giving up, stop moving, and remaining still for a greater percentage of the time.
# Study 2: The goal of the second study was to evaluate corticosteroid side effects and efficacy in a longer study (4 months). After 28 days of dosing, mice were tested for depression-like behavior using a measure of corticosteroid-induced depression (FST followed by TST). Muscle function was tested via grip strength. Tests for depression and for grip-strength were done in a blinded manner. After 4 months, mice were euthanized, and tissues were collected. Bone from whole left leg was collected for micro-CT analysis. The number of animals per group was as follows: WT, n = 16; B10-mdx, n = 15; corticosteroid-treated groups, n = 8–10.
# • 1) Force-swim test: Animals were single housed and acclimated in the behavior room for 30 min prior to test. A clean 1-L beaker was filled with 700 to 800 ml of 23°C water. Each mouse was placed into the water for 6 min. The total immobility time was recorded. After the test, the animals were dried and placed in a cage on a heating pad for about 10 min before returning to the home cages. • 2) Tail-suspension test: Isolated mice were suspended 50 cm above the floor by surgical tape placed approximately 1 cm from the tip of the tail for 6 min. The total immobility time of mice was measured. Mice were considered immobile only when they hung passively and completely motionless.
# [2] = test system: B10-mdx mice; assay: RNA-sequencing of tissues after 2 weeks of treatment (Study 1); conditions: vs vehicle-treated B10-mdx
# [3] = test system: STAT1; assay: GRE-mediated STAT1 in cultured BMDM; assay type: cell-based, mouse; conditions: for EC50: Mus musculus, BMDM, corticosteroid overnight, LPS 10 ng/ml 3 h; for STAT1/IFN-γ Ratio: ratio of EC50 values
# Description: The immunosuppressive activity of corticosteroids is in part due to their inhibition of NF-κB-induced cytokines including TNF-α, IL-6, and IL-12. Furthermore, expression of some inflammatory-mediated proteins such as STAT1 is mediated via GREs, and not the NF-κB pathway. We therefore expanded murine bone marrow-derived macrophages (BMDM) in vitro, and after 5 days of culture tested the relative efficacy of different corticosteroids to prevent LPS-induced cytokine secretion.
# BMDM mouse bone marrow derived macrophage (mBMDM) cultures were generated from the femur and tibia from two 7–11-week-old C57BL/6 mice. Briefly, bone marrow cells were carefully flushed out, suspended in ice-cold PBS, and spun down. After the supernatant was removed, the pelleted cells were resuspended in 2 ml (ammonium-Chloride-Potassium) ACK lysis buffer (Thermo Fisher, Cat# A1049201) and incubated for 3–4 min, followed by 14 ml ice-cold PBS, and then spun down. The pelleted cells were resuspended in 43 ml complete media [Roswell Park Memorial Institute (RPMI 1640), Gibco, Cat# 11875-093; 10% heat-inactivated fetal bovine serum (HiFBS), HyClone, Cat# SH30406.02; 1% 2 mM L-glutamine; 1% penicillin-streptomycin, Sigma, Cat# P4333-100ML; 1% MEM NEAA, Gibco, Cat# 11140-050; 1% Na Pyruvate, Gibco, Cat# 11360-070; 55 μM 2-Mercaptoethanol, Gibco, Cat#21985-023]. A total of 25 ng/ml M-CSF was added to the culture. Cells were dispensed as 200 μl per well into a 96-well tissue culture plate and incubated at 37°C, 5% CO2 for 4 days. On Day 5, media were removed and 100 μl fresh complete media containing M-CSF were added. Corticosteroids were added and cells incubated at 37°C and 5% CO2 overnight. Untreated cells were incubated with media. On Day 6, 10 ng/ml of lipopolysaccharide (LPS) was added and incubated at 37°C and 5% CO2 for 3 h followed by removal of cell media for cytokine analysis. Cytokines were measured using a Meso Scale Discovery (MSD), V-PLEX kit (V-PLEX Cat# K-15048D, www.mesoscale.com).
# [4] = cited from earlier work
# [5] = test system: P-gp (MDR1); assay: MDR1-MDCK permeability / P-gp efflux assay; conditions: MDCK-MDR1, pH 7.4
# Experimental: (§1) To measure transport by P-gp, Madin-Darby canine kidney (MDCK) cells that had been transfected with the human P-gp (MDR1) gene were plated in a Transwell plate and cultured until polarized. MDCK cells that are not transfected with human P-gp were used as a control. Compounds were added to either the apical or the basolateral side of the cells, and transport across the membrane was measured.
# (§2) Testing for permeability and MDR1 substrate assessment was done in MDCK cells transfected to overexpress human MDR1 gene that encodes efflux transporter protein (P-gp). […] Briefly, cells were maintained in Dulbecco’s modified Eagle medium (DMEM) with 10% fetal bovine serum and 1% penicillin/streptomycin in a humidified incubator at 37°C with 5% CO2. The study was performed by Absorption Systems (now Pharmaron; Exton, PA). The MDR1-MDCK and MDCK control cell lines were seeded into 12-well plates for 7 days. Integrity of monolayer tight junctions was monitored preincubation by transepithelial electrical resistance (TEER) measurement. […] The samples were withdrawn at t = 0 and 60 min from the receiver and donor compartments. Compound levels were measured by LC/MS–MS. Additionally, post-assay, cell monolayer integrity was checked with Lucifer Yellow permeability measurement. Transport assay low- and high-permeability control compounds were run in parallel for assay validation. Papp values were calculated considering compound concentrations across the monolayer and cell surface area. Efflux ratios were calculated based on Papp B > A over Papp A > B. The difference between the MDR1-MDCK and the MDCK cell efflux ratios was also calculated. […] Compounds were classified by Absorption Systems/Pharmaron as follows: […]
# [6] = test system: human P-gp (MDR1); assay: MDR1-MDCK permeability / P-gp efflux assay; conditions: for Differences between ratios: MDR1-MDCK minus MDCK efflux ratio; for brain penetration classification: 1 and 10 μM, from Papp (A-to-B) and efflux ratio
# Experimental: as §1, §2
# [7] = doses tested (deflazacort 1.25-15 mg/kg; vamorolone all doses 15, 30, 45 mg/kg)
# [8] = human, 2 mg/kg, ref Conklin et al., Pharmacol Res. 2018
# [9] = human, 6 mg/kg, ref Conklin et al., Pharmacol Res. 2018
smiles,measurement,setting,value
C[C@]12C=CC(=O)C=C1CC[C@@H]1[C@@H]2[C@@H](O)C[C@@]2(C)[C@H]1CC[C@]2(O)C(=O)CO [Prednisolone],immobilization time in tail suspension test,[1]; high dose (5 mg/kg),increased the immobilization time significantly
same,"Number of genes, Quadriceps, Down-regulated",[2]; 1.2 mg/kg daily,3855
same,"Number of genes, Quadriceps, No Change",[2]; 1.2 mg/kg daily,8205
same,"Number of genes, Quadriceps, Up-regulated",[2]; 1.2 mg/kg daily,4250
same,"Number of genes, Quadriceps, Down-regulated",[2]; 2.4 mg/kg daily,5216
same,"Number of genes, Quadriceps, Up-regulated",[2]; 2.4 mg/kg daily,6030
same,"Number of genes, Quadriceps, Down-regulated",[2]; 5 mg/kg daily,4173
same,"Number of genes, Quadriceps, No Change",[2]; 5 mg/kg daily,7883
same,"Number of genes, Quadriceps, Up-regulated",[2]; 5 mg/kg daily,4254
same,EC50,[3],9.4 nM
same,AUC (Day 1),"[4]; human adults, 0.35 mg/kg (20 mg/57 kg), AUC0-12, average of two formulations, ref Bashar et al., Dose Response 2018",3301 ng·h/mL
same,Cmax,"[4]; human adults, 0.35 mg/kg (20 mg/57 kg), average of two formulations, ref Bashar et al., Dose Response 2018",659 ng/mL
CC(=O)OCC(=O)[C@@]12N=C(C)O[C@@H]1C[C@H]1[C@@H]3CCC4=CC(=O)C=C[C@]4(C)[C@H]3[C@@H](O)C[C@@]12C [Deflazacort],Papp at 60 min,[5],< 3 ×10⁻⁶ cm/s
same,"efflux ratio at 60 min, 1 μM",[5],60.2
same,"efflux ratio at 60 min, 10 μM",[5],58.4
same,Basolateral to Apical MDR1-MDCK,[6]; 1 μM,62.60 10 ^ −6 cm/s
same,Differences between ratios,[6]; 1 μM,59
same,Apical to Basolateral MDR1-MDCK,[6]; 10 μM,1.07 10 ^ −6 cm/s
same,Differences between ratios,[6]; 10 μM,57
same,brain penetration classification,[6],low
same,"Papp A→B at 60 min, 1 μM","[6]; dog, MDCK-MDR1, pH 7.4",1.04 ×10⁻⁶ cm/s
same,"Papp B→A at 60 min, 10 μM","[6]; dog, MDCK-MDR1, pH 7.4",62.6 ×10⁻⁶ cm/s
same,immobilization time in tail suspension test,[1]; [7],did not increase
same,"Number of genes, Quadriceps, Down-regulated",[2]; 1.25 mg/kg daily,4245
same,"Number of genes, Quadriceps, No Change",[2]; 1.25 mg/kg daily,7767
same,"Number of genes, Quadriceps, Up-regulated",[2]; 1.25 mg/kg daily,4298
same,"Number of genes, Whole Brain, Down-regulated",[2]; 1.25 mg/kg daily,31
same,"Number of genes, Whole Brain, Up-regulated",[2]; 1.25 mg/kg daily,1
same,"Number of genes, Quadriceps, Down-regulated",[2]; 2.5 mg/kg daily,3706
same,"Number of genes, Quadriceps, No Change",[2]; 2.5 mg/kg daily,9024
same,"Number of genes, Quadriceps, Up-regulated",[2]; 2.5 mg/kg daily,3580
same,"Number of genes, Whole Brain, Down-regulated",[2]; 2.5 mg/kg daily,4
same,"Number of genes, Whole Brain, No Change",[2]; 2.5 mg/kg daily,16306
same,"Number of genes, Whole Brain, Up-regulated",[2]; 2.5 mg/kg daily,0
same,"Number of genes, Quadriceps, Down-regulated",[2]; 5 mg/kg daily,5354
same,"Number of genes, Quadriceps, No Change",[2]; 5 mg/kg daily,4889
same,"Number of genes, Quadriceps, Up-regulated",[2]; 5 mg/kg daily,6067
same,"Number of genes, Whole Brain, Down-regulated",[2]; 5 mg/kg daily,39
same,"Number of genes, Whole Brain, No Change",[2]; 5 mg/kg daily,16214
same,"Number of genes, Whole Brain, Up-regulated",[2]; 5 mg/kg daily,57
same,"Number of genes, Quadriceps, Down-regulated",[2]; 15 mg/kg daily,5462
same,"Number of genes, Quadriceps, No Change",[2]; 15 mg/kg daily,5024
same,"Number of genes, Quadriceps, Up-regulated",[2]; 15 mg/kg daily,5824
same,"Number of genes, Whole Brain, Down-regulated",[2]; 15 mg/kg daily,231
same,"Number of genes, Whole Brain, No Change",[2]; 15 mg/kg daily,15981
same,"Number of genes, Whole Brain, Up-regulated",[2]; 15 mg/kg daily,98
same,EC50,[3],3.1 nM
same,STAT1/IFN-γ Ratio,[3],11×
same,Cmax,"[4]; human, 0.9 mg/kg, ref FDA 208684,208685Orig1s000ClinPharmR.pdf",329 ng/mL
same,AUC (Day 1),"[4]; human, 0.9 mg/kg, ref FDA 208684,208685Orig1s000ClinPharmR.pdf, listed as Emflaza",567 ng·h/mL and 630 ng·h/mL
C[C@@H]1C[C@H]2[C@@H]3CCC4=CC(=O)C=C[C@]4(C)C3=CC[C@]2(C)[C@@]1(O)C(=O)CO [Vamorolone],Papp at 60 min,[5],> 3 ×10⁻⁶ cm/s
same,"efflux ratio at 60 min, 1 μM",[5],6.84
same,"efflux ratio at 60 min, 10 μM",[5],6.42
same,Differences between ratios,[6]; 1 μM,6
same,Apical to Basolateral MDR1-MDCK,[6]; 10 μM,8.73 10 ^ −6 cm/s
same,Differences between ratios,[6]; 10 μM,6
same,brain penetration classification,[6],moderate
same,"Papp A→B at 60 min, 1 μM","[6]; dog, MDCK-MDR1, pH 7.4",7.99 ×10⁻⁶ cm/s
same,"Papp B→A at 60 min, 1 μM","[6]; dog, MDCK-MDR1, pH 7.4",54.7 ×10⁻⁶ cm/s
same,"Papp B→A at 60 min, 10 μM","[6]; dog, MDCK-MDR1, pH 7.4",56.1 ×10⁻⁶ cm/s
same,immobilization time in tail suspension test,[1]; [7],increased the immobilization time significantly
same,"Number of genes, Quadriceps, Down-regulated",[2]; 15 mg/kg daily,3014
same,"Number of genes, Quadriceps, No Change",[2]; 15 mg/kg daily,9369
same,"Number of genes, Quadriceps, Up-regulated",[2]; 15 mg/kg daily,3927
same,"Number of genes, Whole Brain, Down-regulated",[2]; 15 mg/kg daily,138
same,"Number of genes, Whole Brain, No Change",[2]; 15 mg/kg daily,16068
same,"Number of genes, Whole Brain, Up-regulated",[2]; 15 mg/kg daily,104
same,"Number of genes, Quadriceps, Down-regulated",[2]; 30 mg/kg daily,3138
same,"Number of genes, Quadriceps, No Change",[2]; 30 mg/kg daily,10053
same,"Number of genes, Quadriceps, Up-regulated",[2]; 30 mg/kg daily,3119
same,"Number of genes, Whole Brain, Down-regulated",[2]; 30 mg/kg daily,2087
same,"Number of genes, Whole Brain, No Change",[2]; 30 mg/kg daily,11760
same,"Number of genes, Whole Brain, Up-regulated",[2]; 30 mg/kg daily,2463
same,"Number of genes, Quadriceps, Down-regulated",[2]; 45 mg/kg daily,331
same,"Number of genes, Quadriceps, No Change",[2]; 45 mg/kg daily,15364
same,"Number of genes, Quadriceps, Up-regulated",[2]; 45 mg/kg daily,615
same,"Number of genes, Whole Brain, Down-regulated",[2]; 45 mg/kg daily,1114
same,"Number of genes, Whole Brain, No Change",[2]; 45 mg/kg daily,14218
same,"Number of genes, Whole Brain, Up-regulated",[2]; 45 mg/kg daily,978
same,EC50,[3],7.6 nM
same,STAT1/IFN-γ Ratio,[3],10×
same,AUC (Day 1),[4]; [8],761 ng·h/mL
same,Cmax,[4]; [8],199 ng/mL
same,AUC (Day 1),[4]; [9],3279 ng·h/mL
same,Cmax,[4]; [9],856 ng/mL
